The test system of this assay is HCV replicon cells. Nature of the assay: Cell-based HCV replicon assay (replicon RNA by Taqman real time PCR). To be noted: read-out: 1b EC50. In general terms: A replicon is a self-replicating genome or part of one, used to study replication in cells.
Setting [1] is: Hepatitis C virus, 72 h, HCV replicon 1b, cells harvested on day 3.

Structures are written as SMILES. Read-outs that look alike come from different tables or passages of the source.

On to `COc1nc(N)nc2c1ncn2[C@@H]1O[C@H](COP(=O)(N[C@@H](C)C(=O)OC2CCCCC2)Oc2ccccc2)[C@@H](O)[C@@]1(C)N=[N+]=[N-]` (single isomer, unassigned) [Compound 274], for which the EC50 was determined as 8.7 µM.
`CCOC(=O)[C@H](C)NP(=O)(OC[C@H]1O[C@@H](n2cnc3c(OC)nc(N)nc32)[C@](C)(N=[N+]=[N-])[C@@H]1O)Oc1ccc(Cl)cc1` (single isomer, unassigned) [Compound 238]: the EC50 (Hepatitis C virus, 72 h) was 1.2 µM.
For `CCOc1nc(N)nc2c1ncn2[C@@H]1O[C@H](COP(=O)(N[C@@H](C)C(=O)OCC(C)C)Oc2ccccc2)[C@@H](O)[C@@]1(C)N=[N+]=[N-]` (stereo partly shown) [Compound 60], the EC50 is 2 µM.
Turning to `COC(=O)[C@H](C)NP(=O)(OC[C@H]1O[C@@H](n2cnc3c(OC)nc(N)nc32)[C@](C)(N=[N+]=[N-])C1O)Oc1cccc2ccccc12` (single isomer, unassigned) [Compound 255], the EC50 stood at 1.2 µM.
With `CCOc1nc(N)nc2c1ncn2[C@@H]1O[C@H](COP(=O)(N[C@@H](C)C(=O)OC2CCCCC2)Oc2ccccc2)[C@@H](O)[C@@]1(C)N=[N+]=[N-]` (stereo partly shown) [Compound 145], the EC50 (Hepatitis C virus, 72 h) was 0.2 µM.
As for `CCOc1nc(N)nc2c1ncn2[C@@H]1O[C@H](COP(=O)(N[C@@H](C)C(=O)OCC(C)(C)C)Oc2ccccc2Cl)[C@@H](O)[C@@]1(C)N=[N+]=[N-]` (stereo partly shown) [Compound 357], the EC50 (Hepatitis C virus, 72 h) turned out to be 100 µM.
Same read-out and setting: next, `CCOC(=O)c1cccc(OP(=O)(N[C@@H](C)C(=O)OC)OC[C@H]2O[C@@H](n3ccc(=O)[nH]c3=O)[C@](C)(N=[N+]=[N-])[C@@H]2O)c1` (single isomer, unassigned) [Compound 213]: 7.9 µM.
Regarding `CCOc1nc(N)nc2c1ncn2[C@@H]1O[C@H](COP(=O)(N[C@@H](C)C(=O)OC)Oc2ccccc2)[C@@H](O)[C@@]1(C)N=[N+]=[N-]` (single isomer, unassigned) [Compound 143], the EC50 was 0.6 µM.
With `C[C@H](NP(=O)(OC[C@H]1O[C@@H](n2ccc(N)nc2=O)[C@](C)(N=[N+]=[N-])[C@@H]1O)Oc1ccccc1)C(=O)OCC(C)(C)C` (stereo partly shown) [Compound 14], the EC50 (Hepatitis C virus, 72 h) was 32 µM.
With `CCCOC(=O)[C@H](C)N[P@@](=O)(OC[C@H]1O[C@@H](n2ccc(=O)[nH]c2=O)[C@](C)(N=[N+]=[N-])[C@@H]1O)Oc1cccc2ccccc12` (single isomer, unassigned) [Compound 375], the EC50 (Hepatitis C virus, 72 h) came out at 0.8 µM.
Regarding `CCOC(=O)[C@H](C)NP(=O)(OC[C@H]1O[C@@H](n2ccc(N)nc2=O)[C@](C)(N=[N+]=[N-])[C@@H]1O)Oc1ccc(Cl)cc1` (single isomer, unassigned) [Compound 189], the EC50 was determined as 22 µM.
As to `COC(=O)[C@H](C)NP(=O)(OC[C@H]1O[C@@H](n2cnc3c(NC4CC4)nc(N)nc32)[C@](C)(N=[N+]=[N-])[C@@H]1O)Oc1ccccc1` (stereo partly shown) [Compound 386], the half-maximal effective concentration (EC50) (Hepatitis C virus, 72 h) is 5.3 µM.
Turning to `C[C@H](NP(=O)(OC[C@H]1O[C@@H](n2ccc(=O)[nH]c2=O)[C@](C)(N=[N+]=[N-])[C@@H]1O)Oc1ccccc1)C(=O)O[C@H](C)c1ccccc1` (single isomer, unassigned) [Compound 303], the EC50 came to 46.9 µM.
For the molecule `CCOc1nc(N)nc2c1ncn2[C@@H]1O[C@H](COP(=O)(N[C@@H](C)C(=O)OC(C)C)Oc2ccccc2Cl)[C@@H](O)[C@@]1(C)N=[N+]=[N-]` (single isomer, unassigned) [Compound 315], the EC50 stood at 9.2 µM.
The same measure, in the same setting: next, `C[C@H](NP(=O)(OC[C@H]1O[C@@H](n2ccc(N)nc2=O)[C@](C)(N=[N+]=[N-])[C@@H]1O)Oc1ccccc1Cl)C(=O)OCC(C)(C)C` (single isomer, unassigned) [Compound 182]: 12 µM.
`CC(C)OC(=O)[C@H](C)NP(=O)(OC[C@H]1O[C@@H](n2ccc(N)nc2=O)[C@](C)(N=[N+]=[N-])[C@@H]1O)Oc1ccc(Cl)c(Cl)c1` (stereo partly shown) [Compound 195]: under “Hepatitis C virus, 72 h”, the EC50 was 0.02 µM.
For `COc1nc(N)nc2c1ncn2[C@@H]1O[C@H](COP(=O)(N[C@@H](C)C(=O)OC(C)C)Oc2ccc(Cl)c(Cl)c2)[C@@H](O)[C@@]1(C)N=[N+]=[N-]` (single isomer, unassigned) [Compound 283], the EC50 stood at 8.4 µM.
Regarding `C[C@H](NP(=O)(OC[C@H]1O[C@@H](n2ccc(N)nc2=O)[C@](C)(N=[N+]=[N-])[C@@H]1O)Oc1ccccc1)C(=O)OC1CCCC1` (stereo partly shown) [Compound 336], the EC50 came to 15 µM.
Turning to `CCOc1nc(N)nc2c1ncn2[C@@H]1O[C@H](COP(=O)(N[C@@H](C)C(=O)OC2CCC2)Oc2ccccc2)[C@@H](O)[C@@]1(C)N=[N+]=[N-]` (single isomer, unassigned) [Compound 362], the EC50 is 2.6 µM.
Take `COc1nc(N)nc2c1ncn2[C@@H]1O[C@H](COP(=O)(N[C@@H](C)C(=O)OCC(C)C)Oc2ccc(Cl)cc2)[C@@H](O)[C@@]1(C)N=[N+]=[N-]` (stereo partly shown) [Compound 285]: the EC50 (Hepatitis C virus, 72 h) is 1.1 µM.
Consider `COC(=O)[C@H](C)NP(=O)(OC[C@H]1O[C@@H](n2ccc(=O)[nH]c2=O)[C@](C)(N=[N+]=[N-])[C@@H]1O)Oc1ccc(Cl)c(Cl)c1` (stereo partly shown) [Compound 229], for which the EC50 (Hepatitis C virus, 72 h) was found to be 0.03 µM.
Regarding `COc1nc(N)nc2c1ncn2[C@@H]1O[C@@H]2COP(=O)(OC3CCCC3)O[C@H]2[C@@]1(C)N=[N+]=[N-]` (stereo partly shown) [Compound 105], the EC50 under setting [1] was 17.1 µM.
Take `COC(=O)[C@H](C)NP(=O)(OC[C@H]1O[C@@H](n2cnc3c(OC)nc(N)nc32)[C@](C)(N=[N+]=[N-])[C@@H]1O)Oc1ccccc1Cl` (stereo partly shown) [Compound 77]: where the note is “Hepatitis C virus, 72 h”, the EC50 amounted to 0.6 µM.
Regarding `COc1nc(N)nc2c1ncn2[C@@H]1O[C@H](COP(=O)(N[C@@H](C)C(=O)OCC(C)C)Oc2ccccc2)C(O)[C@@]1(C)N=[N+]=[N-]` (single isomer, unassigned) [Compound 276], the EC50 (Hepatitis C virus, 72 h) was found to be 2.7 µM.
Same read-out and setting: next, `CCOC(=O)[C@H](C)NP(=O)(OC[C@H]1O[C@@H](n2cnc3c(OCC)nc(N)nc32)[C@](C)(N=[N+]=[N-])[C@@H]1O)Oc1ccccc1Cl` (single isomer, unassigned) [Compound 358]: 2.3 µM.
Regarding `COc1nc(N)nc2c1ncn2[C@@H]1O[C@H](CO)[C@@H](O)[C@@]1(C)N=[N+]=[N-]` [Compound 51], the 50% effective concentration (EC50) under setting [1] was over 100 µM.
In the case of `CCOC(=O)[C@H](C)NP(=O)(OC[C@H]1O[C@@H](n2cnc3c(OCC)nc(N)nc32)[C@](C)(N=[N+]=[N-])[C@@H]1O)Oc1ccc(F)cc1` (single isomer, unassigned) [Compound 176], the EC50 was 0.3 µM.
In the case of `CCOC(=O)[C@H](C)NP(=O)(OC[C@H]1O[C@@H](n2cnc3c(OC)nc(N)nc32)[C@](C)(N=[N+]=[N-])[C@@H]1O)Oc1ccc(F)cc1` (single isomer, unassigned) [Compound 271], the EC50 came out at 4.4 µM.
On the same count and under the same terms, the result for `COC(=O)[C@H](C)NP(=O)(OC)OC[C@H]1O[C@@H](n2ccc(N)nc2=O)[C@](C)(N=[N+]=[N-])[C@@H]1O` (single isomer, unassigned) [Compound 346] reads over 100 µM.
As for `COc1nc(N)nc2c1ncn2[C@@H]1O[C@H](COP(=O)(N[C@@H](C)C(=O)OC(C)C)Oc2ccc(Cl)c(Cl)c2)[C@@H](O)[C@@]1(C)N=[N+]=[N-]` (stereo partly shown) [Compound 244], the EC50 (Hepatitis C virus, 72 h) came out at 6 µM.
The same measure, in the same setting: next, `CC(C)OC(=O)[C@H](C)NP(=O)(OC[C@H]1O[C@@H](n2ccc(N)nc2=O)[C@](C)(N=[N+]=[N-])[C@@H]1O)Oc1ccc(F)cc1` (stereo partly shown) [Compound 196]: 39 µM; `CCOc1nc(N)nc2c1ncn2[C@@H]1O[C@H](COP(=O)(N[C@@H](C)C(=O)OC)Oc2ccccc2Cl)[C@@H](O)[C@@]1(C)N=[N+]=[N-]` (stereo partly shown) [Compound 58]: 0.5 µM.
For `CC(C)OC(=O)[C@H](C)NP(=O)(OC[C@H]1O[C@@H](n2ccc(=O)[nH]c2=O)[C@](C)(N=[N+]=[N-])[C@@H]1O)Oc1ccccc1` (single isomer, unassigned) [Compound 157], the EC50 (Hepatitis C virus, 72 h) came to 49 µM.
For `CCCCOC(=O)[C@H](C)NP(=O)(OC[C@H]1O[C@@H](n2cnc3c(OC)nc(N)nc32)[C@](C)(N=[N+]=[N-])C1O)Oc1cccc2ccccc12` (single isomer, unassigned) [Compound 298], the EC50 came to 0.1 µM.
Take `CCCCOC(=O)[C@H](C)NP(=O)(OC[C@H]1O[C@@H](n2cnc3c(OCC)nc(N)nc32)[C@](C)(N=[N+]=[N-])[C@@H]1O)Oc1ccc(Cl)c(Cl)c1` (stereo partly shown) [Compound 370]: the EC50 (Hepatitis C virus, 72 h) came out at 10 µM.
Same read-out and setting: next, `CCOC(=O)c1cccc(OP(=O)(N[C@@H](C)C(=O)OC)OC[C@H]2O[C@@H](n3ccc(=O)[nH]c3=O)[C@](C)(N=[N+]=[N-])[C@@H]2O)c1` (stereo partly shown) [Compound 222]: 0.01 µM.
As for `COc1nc(N)nc2c1ncn2[C@@H]1O[C@H](COP(=O)(N[C@@H](C)C(=O)OC2CCCCC2)Oc2ccc(F)cc2)[C@@H](O)[C@@]1(C)N=[N+]=[N-]` (single isomer, unassigned) [Compound 265], the EC50 stood at 2.5 µM.
Same read-out and setting: the result for `CCOc1nc(N)nc2c1ncn2[C@@H]1O[C@H](COP(=O)(N[C@@H](C)C(=O)OC)Oc2ccc(Cl)cc2)[C@@H](O)[C@@]1(C)N=[N+]=[N-]` (single isomer, unassigned) [Compound 311] reads 0.9 µM.
On to `COc1nc(N)nc2c1ncn2[C@@H]1O[C@H](COP(=O)(N[C@@H](C)C(=O)OC2CCCCC2)Oc2ccc(Cl)cc2)[C@@H](O)[C@@]1(C)N=[N+]=[N-]` (stereo partly shown) [Compound 80], for which the EC50 (Hepatitis C virus, 72 h) is 2.6 µM.
Still for that read-out and setting: next, `CCOc1nc(N)nc2c1ncn2[C@@H]1O[C@H](COP(=O)(N[C@@H](C)C(=O)OC)Oc2cccc3ccccc23)[C@@H](O)[C@@]1(C)N=[N+]=[N-]` (single isomer, unassigned) [Compound 355]: 1.3 µM; `C[C@H](NP(=O)(OC[C@H]1O[C@@H](n2ccc(=O)[nH]c2=O)[C@](C)(N=[N+]=[N-])[C@@H]1O)Oc1ccccc1)C(=O)OCC(C)(C)C` (stereo partly shown) [Compound 16]: 1 µM.
On the same count and under the same terms, next, `CCOC(=O)[C@H](C)NP(=O)(OC[C@H]1O[C@@H](n2cnc3c(NC4CC4)nc(N)nc32)[C@](C)(N=[N+]=[N-])[C@@H]1O)Oc1ccccc1` (stereo partly shown) [Compound 387]: 1.9 µM; `COC(=O)[C@H](C)NP(=O)(OC[C@H]1O[C@@H](n2cnc3c(NC4CC4)nc(N)nc32)[C@](C)(N=[N+]=[N-])[C@@H]1O)Oc1ccccc1Cl` (stereo partly shown) [Compound 385]: 1.4 µM.

As a reminder, the EC50 is the concentration giving half of the maximal effect.
